From ChEMBL document CHEMBL1201862, “PubChem BioAssay data set” (2004)
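Compound exposure: 48 hours, 5 concentrations, 96-well plates. GI50 marks 50% less growth.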 Activity calls are given as the source filed them. Rule as the data show it: active = GI50 up to about 1.1 µM and inactive = higher.

Key:
Assay in all cases: growth of human tumour cells (NCI), 48 h
ACHN = tested on: ACHN
CCRF-CEM = tested on: CCRF-CEM
EKVX = tested on: EKVX
HL-60 = tested on: HL-60
HOP-92 = tested on: HOP-92
HT-29 = tested on: HT-29
IGROV-1 = tested on: IGROV-1
K562 = tested on: K562
LOX IMVI = tested on: LOX IMVI
NCI-H460 = tested on: NCI-H460
NCI/ADR-RES = tested on: NCI/ADR-RES
SF-268 = tested on: SF-268
SF-539 = tested on: SF-539
SK-MEL-28 = tested on: SK-MEL-28
SK-MEL-2 = tested on: SK-MEL-2
SK-MEL-5 = tested on: SK-MEL-5
SNB-19 = tested on: SNB-19
U-251 = tested on: U-251
UACC-257 = tested on: UACC-257
UACC-62 = tested on: UACC-62

SMILES	GI50 (ACHN)	GI50 (CCRF-CEM)	GI50 (EKVX)	GI50 (HL-60)	GI50 (HOP-92)	GI50 (HT-29)	GI50 (IGROV-1)	GI50 (K562)	GI50 (LOX IMVI)	GI50 (NCI-H460)	GI50 (NCI/ADR-RES)	GI50 (SF-268)	GI50 (SF-539)	GI50 (SK-MEL-28)	GI50 (SK-MEL-2)	GI50 (SK-MEL-5)	GI50 (SNB-19)	GI50 (U-251)	GI50 (UACC-257)	GI50 (UACC-62)
O=C(c1ccc2ccccc2c1O)N1CCCCC1	> 100 µM (inactive)	> 100 µM (inactive)	61.4 µM (inactive)	68.9 µM (inactive)	78.9 µM (inactive)	> 100 µM (inactive)	> 100 µM (inactive)	28.4 µM (inactive)	90.4 µM (inactive)	80.7 µM (inactive)	39 µM (inactive)	> 100 µM (inactive)	> 100 µM (inactive)	> 100 µM (inactive)	> 100 µM (inactive)	34 µM (inactive)	> 100 µM (inactive)	> 100 µM (inactive)	> 100 µM (inactive)	> 100 µM (inactive)
O=S(=O)(Nc1ccccc1)c1ccc(-c2c3nc(c(-c4ccc(S(=O)(=O)Nc5ccccc5)cc4)c4ccc([nH]4)c(-c4ccc(S(=O)(=O)Nc5ccccc5)cc4)c4nc(c(-c5ccc(S(=O)(=O)Nc6ccccc6)cc5)c5ccc2[nH]5)C=C4)C=C3)cc1	11.1 µM (inactive)	> 31.6 µM (inactive)	> 31.6 µM (inactive)	> 31.6 µM (inactive)	12.8 µM (inactive)	> 31.6 µM (inactive)	> 93.3 µM (inactive)	> 31.6 µM (inactive)	> 10 µM (inactive)	11.6 µM (inactive)	> 31.6 µM (inactive)	> 31.6 µM (inactive)	> 31.6 µM (inactive)	> 10 µM (inactive)	> 31.6 µM (inactive)	> 31.6 µM (inactive)	14.1 µM (inactive)	> 31.6 µM (inactive)	26.4 µM (inactive)	> 31.6 µM (inactive)
COc1cc(OC)c(OC)cc1/C=C\c1ccnc2ccccc12	1.29 µM (inactive)	1.4 µM (inactive)	2.17 µM (inactive)	0.344 µM (active)	1.21 µM (inactive)	0.522 µM (active)	0.897 µM (active)	0.282 µM (active)	0.61 µM (active)	0.555 µM (active)	0.374 µM (active)	0.838 µM (active)	0.394 µM (active)	0.782 µM (active)	0.308 µM (active)	0.414 µM (active)	1.01 µM (active)	0.628 µM (active)	4.88 µM (inactive)	0.541 µM (active)
C/C1=C\C=C(\C(C)C)CC/C(C(=O)O)=C\CC/C(C)=C/CC1 [NEOCROTOCEMBRANEIC ACID]	34.3 µM (inactive)	19.5 µM (inactive)	27.1 µM (inactive)	24.8 µM (inactive)	19.4 µM (inactive)	32 µM (inactive)	42 µM (inactive)	26.1 µM (inactive)	20.5 µM (inactive)	17.7 µM (inactive)	30.5 µM (inactive)	32.9 µM (inactive)	18.5 µM (inactive)	24.6 µM (inactive)	18.1 µM (inactive)	19.3 µM (inactive)	24.9 µM (inactive)	16.9 µM (inactive)	22.5 µM (inactive)	13.1 µM (inactive)
O=C(CCN1CCN2c3ccccc3CCC2C1)c1ccc(F)cc1 (stereo not given)	19 µM (inactive)	36.6 µM (inactive)	27.5 µM (inactive)	28.5 µM (inactive)	33.9 µM (inactive)	18.8 µM (inactive)	22.4 µM (inactive)	30.2 µM (inactive)	30.1 µM (inactive)	47.1 µM (inactive)	36 µM (inactive)	46.9 µM (inactive)	20.8 µM (inactive)	14.7 µM (inactive)	23 µM (inactive)	22.5 µM (inactive)	23.2 µM (inactive)	27.8 µM (inactive)	34.7 µM (inactive)	31 µM (inactive)
COc1ccc(-c2c(-c3ccccc3)c(C)nc3[nH]c(=S)[nH]c(=S)c23)cc1OC	30.3 µM (inactive)	24.7 µM (inactive)	54.8 µM (inactive)	31.8 µM (inactive)	33.8 µM (inactive)	41 µM (inactive)	36.3 µM (inactive)	31.2 µM (inactive)	28.2 µM (inactive)	24.3 µM (inactive)	40.4 µM (inactive)	23.9 µM (inactive)	19.8 µM (inactive)	22.1 µM (inactive)	20.4 µM (inactive)	28.1 µM (inactive)	60.3 µM (inactive)	33.4 µM (inactive)	36.6 µM (inactive)	16.1 µM (inactive)
COc1cc(C=O)cc(/C=N/c2ccc(Br)cc2)c1O	2.53 µM (inactive)	7.59 µM (inactive)	13.6 µM (inactive)	2.11 µM (inactive)	3.53 µM (inactive)	17.7 µM (inactive)	40.3 µM (inactive)	0.555 µM (active)	0.16 µM (active)	2.71 µM (inactive)	2.49 µM (inactive)	1.66 µM (inactive)	2.38 µM (inactive)	6.71 µM (inactive)	2.78 µM (inactive)	2.19 µM (inactive)	12.7 µM (inactive)	4.57 µM (inactive)	5.75 µM (inactive)	0.347 µM (active)
COc1cc2c(cc1OC)C(=O)/C(=C/c1ccc(N(C)C)cc1)CC2	> 10 µM (inactive)	9.77 µM (inactive)	> 10 µM (inactive)	> 10 µM (inactive)	> 10 µM (inactive)	> 10 µM (inactive)	> 10 µM (inactive)	> 10 µM (inactive)	> 10 µM (inactive)	> 10 µM (inactive)	> 10 µM (inactive)	> 10 µM (inactive)	> 10 µM (inactive)	> 10 µM (inactive)	0.962 µM (active)	> 10 µM (inactive)	> 10 µM (inactive)	> 10 µM (inactive)	3.38 µM (inactive)	> 10 µM (inactive)
Cc1c(N(C)C)ccc2c(=O)c3cccc(CC(=O)O)c3oc12	> 100 µM (inactive)	> 100 µM (inactive)	> 100 µM (inactive)	97.9 µM (inactive)	> 64.9 µM (inactive)	> 100 µM (inactive)	> 100 µM (inactive)	> 100 µM (inactive)	> 100 µM (inactive)	> 100 µM (inactive)	> 100 µM (inactive)	> 100 µM (inactive)	> 100 µM (inactive)	> 100 µM (inactive)	> 100 µM (inactive)	> 75.3 µM (inactive)	> 43.4 µM (inactive)	> 100 µM (inactive)	> 100 µM (inactive)	> 100 µM (inactive)
Cc1ccc(P(c2ccc(C)cc2)c2ccc(C)cc2)cc1	23.2 µM (inactive)	20.4 µM (inactive)	28.3 µM (inactive)	28.8 µM (inactive)	5.66 µM (inactive)	19.4 µM (inactive)	18.8 µM (inactive)	4.83 µM (inactive)	14.9 µM (inactive)	12.9 µM (inactive)	27.5 µM (inactive)	24.3 µM (inactive)	21.6 µM (inactive)	24.5 µM (inactive)	22.2 µM (inactive)	16.6 µM (inactive)	61.8 µM (inactive)	14.3 µM (inactive)	22.1 µM (inactive)	21.6 µM (inactive)
C=CCSc1nnc2cc(CN3CCCC3)c(-c3ccc(Cl)cc3)nn12	15.7 µM (inactive)	45.1 µM (inactive)	19 µM (inactive)	17.9 µM (inactive)	16.1 µM (inactive)	15 µM (inactive)	20.7 µM (inactive)	34.7 µM (inactive)	20.4 µM (inactive)	17.9 µM (inactive)	23.3 µM (inactive)	20.8 µM (inactive)	18.6 µM (inactive)	20 µM (inactive)	19.2 µM (inactive)	15.5 µM (inactive)	24.6 µM (inactive)	17.5 µM (inactive)	17.5 µM (inactive)	14.4 µM (inactive)
